Results: patent publication US20210199658A1, “DETECTION OF LIPASE ACTIVITY IN HONEY BEES” (The United States of America, as Represented by the …, priority 2019, published 2021)

Assays:
[1] = test system: honey bees; experiment: Total lipid content of imidacloprid-challenged bees, vanillin assay; assay type: in vivo, Apis mellifera
Procedure: The total lipid content on bees challenged with either 5 ppb or 50 ppb imidacloprid was measured using the vanillin assay, performed as in Example 4. The measured lipid levels (in mg/mL) were plotted, and the results are shown on FIG. 10. The total lipid content for bees treated with 5 ppb imidacloprid (P<0.01) or 50 ppb imidacloprid (P<0.05) was approximately 3-fold lower than the total lipid content measured in control bees.
To determine if the lipase activity measured in healthy and DWV-infected hives correlated with the measured lipid levels, the vanillin assay (Foray, V., et al., 2012, “A handbook for uncovering the complete energetic budget in insects: the van Handel's method (1985) revisited,” Physiol. Entomol. 37: 295-302) was used to measure the lipid levels in the bees. Briefly, vanillin reagent was prepared by mixing vanillin (V1104; Sigma-Aldrich, St. Louis, Mo., USA) with 68% ortho-phosphoric acid, reaching a final concentration of 1.2 g/L. For the assay, 100 μL of homogenized pupae in PBS was transferred into a borosilicate microplate well and heated at 90° C. until complete solvent evaporation. Ten microliters of 98% sulphuric acid was then added to each well, and the microplate was incubated at 90° C. for 2 minutes in a water bath. […] The plate was homogenized, incubated at room temperature for 15 minutes and its absorbance was measured spectrophotometrically at 525 nm.

[2] = test system: honey bees; experiment: Time course of lipase activity (RFU) in honey bees challenged with imidacloprid; assay type: in vivo, Apis mellifera
Procedure: Healthy honey bees were challenged in a cup-cage environment with either 5 ppb or 50 ppb of the neonicotinoid imidacloprid. The lipase activity levels were measured during a 50 minute time course, as taught herein.
To determine if it is possible to detect a difference between healthy bees and DWV-infected bees using the EnzChek lipase substrate and the buffers taught herein, a time course assay was performed using a set amount of EnzChek lipase substrate and a fixed amount of extracted pupae. […] In this figure, the relative fluorescence intensity (RFU) measured was plotted against time. Using linear regression, a significant difference in slopes was observable between individuals from DWV-infected hives, and individuals from healthy hives. The slope obtained for DWV-infected individuals was about 13.8 higher than the slope obtained for healthy individuals.
Healthy seven and fourteen-day-old emerging adult honey bees were obtained from field colonies and were challenged with either 5 ppb or 50 ppb of the neonicotinoid imidacloprid. Same-aged bees were collected from unchallenged colonies acted as controls. The lipase activity levels were measured during a 30-minute time course, as in Example 3. […] Statistical significance was determined using pair-wise Kaplan Meier linear regression (P<0.01).

With `O=[N+]([O-])NC1=NCCN1Cc1ccc(Cl)nc1` [imidacloprid, 1-(6-chloro-3-pyridylmethyl)-N-nitroimidazolidin-2-ylideneamine] the “total lipid content, fold lower than control bees” value ([1]; bees treated with 5 ppb imidacloprid, P<0.01) was “approximately 3 fold”, the “total lipid content, fold lower than control bees” value ([1]; bees treated with 50 ppb imidacloprid, P<0.05) was “approximately 3 fold” and the “lipase activity levels (slope of RFU against time) compared with control bees” value ([2]; bees challenged with 5 ppb imidacloprid) was “similar”. The “lipase activity levels (RFU against time) compared with control bees” value ([2]; bees challenged with 50 ppb imidacloprid, linear regression P<0.01) was “significantly higher”.
